Test results as given in patent US20240116946A1 (Gilead Sciences, Inc., priority 2022, published 2024).
Read-outs that look alike come from different tables or passages of the source.

Tests used:
[1] = target: recombinant SARS-CoV-2 Main protease (Mpro) (Severe acute respiratory syndrome coronavirus 2 (2019-nCoV) (SARS-CoV-2), UniProt P0DTD1); experiment: Cov Mpro Biochemical IC50 Assay; conditions: fluorogenic peptide substrate 40 μM
SARS-CoV-2-NLuc = experiment: microbe, parasite or virus in culture; type: cell-based, SARS Coronavirus 2; conditions: read-out: MPro EC50
[2] = recombinant SARS-CoV-2 Mpro 7.5 nM, read-out: MPro IC50
[3] = MPro IC50, recombinant SARS-CoV-2 Mpro 7.5 nM

SMILES | IC50 [1, 2] | EC50 (SARS-CoV-2-NLuc) | IC50 [1, 3]
COc1cc(-c2cc3c(s2)c(=O)n(-c2cncc4cnn(C)c24)c(=O)n3CCC#N)c(C#N)cc1F (single isomer, unassigned) [Example 1003, 2-[1-(2-cyanoethyl)-3-(1-methylpyrazolo[4,3-c]pyridin-7-yl)-2,4-dioxo-thieno[3,2-d]pyrimidin-6-yl]-5-fluoro-4-methoxy-benzonitrile] | 2.83 nM | 5.66 nM | –
COc1cc(-c2cc3c(s2)c(=O)n(-c2cncc4cnn(C)c24)c(=O)n3CCC#N)c(C#N)cc1F (single isomer, unassigned) [Example 1004, 2-[1-(2-cyanoethyl)-3-(1-methylpyrazolo[4,3-c]pyridin-7-yl)-2,4-dioxo-thieno[3,2-d]pyrimidin-6-yl]-5-fluoro-4-methoxy-benzonitrile] | 71.5 nM | 112 nM | –
COc1cc(-c2cc3[nH]c(=O)n(-c4cncc5ccccc45)c(=O)c3cc2F)c(Cl)cc1F (single isomer, unassigned) [Example 1006, 7-(2-chloro-4-fluoro-5-methoxy-phenyl)-6-fluoro-3-(4-isoquinolyl)-1H-quinazoline-2,4-dione] | – | 9.33 nM | 23.8 nM
COc1cc(-c2cc3[nH]c(=O)n(-c4cncc5ccccc45)c(=O)c3cc2F)c(Cl)cc1F (single isomer, unassigned) [Example 1007, 7-(2-chloro-4-fluoro-5-methoxy-phenyl)-6-fluoro-3-(4-isoquinolyl)-1H-quinazoline-2,4-dione] | – | 301 nM | 331 nM
COc1cc(-c2cc3[nH]c(=O)n(-c4cncc5cccnc45)c(=O)c3s2)c(Cl)cc1F (single isomer, unassigned) [Example 1008, 6-(2-chloro-4-fluoro-5-methoxy-phenyl)-3-(1,6-naphthyridin-8-yl)-1H-thieno[3,2-d]pyrimidine-2,4-dione] | 128 nM | 138 nM | –
COc1cc(-c2cc3[nH]c(=O)n(-c4cncc5cccnc45)c(=O)c3s2)c(Cl)cc1F (single isomer, unassigned) [Example 1009, 6-(2-chloro-4-fluoro-5-methoxy-phenyl)-3-(1,6-naphthyridin-8-yl)-1H-thieno[3,2-d]pyrimidine-2,4-dione] | 3.99 nM | 3.96 nM | –
COc1cc(-c2cc3c(s2)c(=O)n(-c2cncc4cnn(C)c24)c(=O)n3CC#N)c(Cl)cc1F (single isomer, unassigned) [Example 1012, 2-[6-(2-chloro-4-fluoro-5-methoxy-phenyl)-3-(1-methylpyrazolo[4,3-c]pyridin-7-yl)-2,4-dioxo-thieno[3,2-d]pyrimidin-1-yl]acetonitrile] | 1.99 nM | 3.19 nM | –
COc1cc(-c2cc3c(s2)c(=O)n(-c2cncc4cnn(C)c24)c(=O)n3CC#N)c(Cl)cc1F (single isomer, unassigned) [Example 1013, 2-[6-(2-chloro-4-fluoro-5-methoxy-phenyl)-3-(1-methylpyrazolo[4,3-c]pyridin-7-yl)-2,4-dioxo-thieno[3,2-d]pyrimidin-1-yl]acetonitrile] | 1.42 nM | 16.5 nM | –
COc1cc(-c2cc3c(s2)c(=O)n(-c2cncc(F)c2C)c(=O)n3CCC#N)c(Cl)cc1F (single isomer, unassigned) [Example 1026, 3-[6-(2-chloro-4-fluoro-5-methoxy-phenyl)-3-(5-fluoro-4-methyl-3-pyridyl)-2,4-dioxo-thieno[3,2-d]pyrimidin-1-yl]propanenitrile] | 3.08 nM | 5.44 nM | –
COc1cc(-c2cc3c(s2)c(=O)n(-c2cncc(F)c2C)c(=O)n3CCC#N)c(Cl)cc1F (single isomer, unassigned) [Example 1027, 3-[6-(2-chloro-4-fluoro-5-methoxy-phenyl)-3-(5-fluoro-4-methyl-3-pyridyl)-2,4-dioxo-thieno[3,2-d]pyrimidin-1-yl]propanenitrile] | 61.9 nM | 66.1 nM | –
Cn1nnc2cncc(-n3c(=O)c4sc(-c5ccc(F)cc5Cl)cc4n(CCC#N)c3=O)c21 (single isomer, unassigned) [Example 1028, 3-[6-(2-chloro-4-fluoro-phenyl)-3-(1-methyltriazolo[4,5-c]pyridin-7-yl)-2,4-dioxo-thieno[3,2-d]pyrimidin-1-yl]propanenitrile] | 17.9 nM | 51 nM | –
Cn1nnc2cncc(-n3c(=O)c4sc(-c5ccc(F)cc5Cl)cc4n(CCC#N)c3=O)c21 (single isomer, unassigned) [Example 1029, 3-[6-(2-chloro-4-fluoro-phenyl)-3-(1-methyltriazolo[4,5-c]pyridin-7-yl)-2,4-dioxo-thieno[3,2-d]pyrimidin-1-yl]propanenitrile] | 582 nM | > 1000 nM | –
COc1cc(-c2cc3c(s2)c(=O)n(-c2cnccc2C)c(=O)n3CCC#N)c(Cl)cc1F (single isomer, unassigned) [Example 1030, 3-[6-(2-chloro-4-fluoro-5-methoxy-phenyl)-3-(4-methyl-3-pyridyl)-2,4-dioxo-thieno[3,2-d]pyrimidin-1-yl]propanenitrile] | 4.5 nM | 9.72 nM | –
COc1cc(-c2cc3c(s2)c(=O)n(-c2cnccc2C)c(=O)n3CCC#N)c(Cl)cc1F (single isomer, unassigned) [Example 1031, 3-[6-(2-chloro-4-fluoro-5-methoxy-phenyl)-3-(4-methyl-3-pyridyl)-2,4-dioxo-thieno[3,2-d]pyrimidin-1-yl]propanenitrile] | 45.6 nM | 75.3 nM | –
COc1cc(-c2cc3c(s2)c(=O)n(-c2cncc(Cl)c2C)c(=O)n3CCC#N)c(Cl)cc1F (single isomer, unassigned) [Example 1032, 3-[6-(2-chloro-4-fluoro-5-methoxy-phenyl)-3-(5-chloro-4-methyl-3-pyridyl)-2,4-dioxo-thieno[3,2-d]pyrimidin-1-yl]propanenitrile] | 1.99 nM | 2.02 nM | –
COc1cc(-c2cc3c(s2)c(=O)n(-c2cncc(Cl)c2C)c(=O)n3CCC#N)c(Cl)cc1F (single isomer, unassigned) [Example 1033, 3-[6-(2-chloro-4-fluoro-5-methoxy-phenyl)-3-(5-chloro-4-methyl-3-pyridyl)-2,4-dioxo-thieno[3,2-d]pyrimidin-1-yl]propanenitrile] | 420 nM | 488 nM | –
COc1cc(-c2cc3[nH]c(=O)n(-c4cncc5ccc(C)nc45)c(=O)c3s2)c(Cl)cc1F (single isomer, unassigned) [Example 1034, 6-(2-chloro-4-fluoro-5-methoxyphenyl)-3-(2-methyl-1,6-naphthyridin-8-yl)thieno[3,2-d]pyrimidine-2,4(1H,3H)-dione] | 3.13 nM | 3.04 nM | –
COc1cc(-c2cc3[nH]c(=O)n(-c4cncc5ccc(C)nc45)c(=O)c3s2)c(Cl)cc1F (single isomer, unassigned) [Example 1035, 6-(2-chloro-4-fluoro-5-methoxyphenyl)-3-(2-methyl-1,6-naphthyridin-8-yl)thieno[3,2-d]pyrimidine-2,4(1H,3H)-dione] | 26.3 nM | 24.4 nM | –
COc1cc(-c2cc3c(s2)c(=O)n(-c2cncc4cccnc24)c(=O)n3CCC#N)c(Cl)cc1F (single isomer, unassigned) [Example 1036, 3-(6-(2-chloro-4-fluoro-5-methoxyphenyl)-3-(1,6-naphthyridin-8-yl)-2,4-dioxo-3,4-dihydrothieno[3,2-d]pyrimidin-1(2H)-yl)propanenitrile] | 1.42 nM | 0.66 nM | –
COc1cc(-c2cc3c(s2)c(=O)n(-c2cncc4cccnc24)c(=O)n3CCC#N)c(Cl)cc1F (single isomer, unassigned) [Example 1037, 3-(6-(2-chloro-4-fluoro-5-methoxyphenyl)-3-(1,6-naphthyridin-8-yl)-2,4-dioxo-3,4-dihydrothieno[3,2-d]pyrimidin-1(2H)-yl)propanenitrile] | 544 nM | 362 nM | –
COc1cc(-c2cc3c(s2)c(=O)n(-c2cncc4nn(C)c(C)c24)c(=O)n3CCC#N)c(Cl)cc1F (single isomer, unassigned) [Example 1041, 3-(6-(2-chloro-4-fluoro-5-methoxyphenyl)-3-(2,3-dimethyl-2H-pyrazolo[3,4-c]pyridin-4-yl)-2,4-dioxo-3,4-dihydrothieno[3,2-d]pyrimidin-1(2H)-yl)propanenitrile] | 2.99 nM | 5.72 nM | –
COc1cc(-c2cc3c(s2)c(=O)n(-c2cncc4nn(C)c(C)c24)c(=O)n3CCC#N)c(Cl)cc1F (single isomer, unassigned) [Example 1042, 3-(6-(2-chloro-4-fluoro-5-methoxyphenyl)-3-(2,3-dimethyl-2H-pyrazolo[3,4-c]pyridin-4-yl)-2,4-dioxo-3,4-dihydrothieno[3,2-d]pyrimidin-1(2H)-yl)propanenitrile] | > 1000 nM | > 1000 nM | –
COc1cc(-c2cc3c(s2)c(=O)n(-c2cncc4c2c(C)nn4C)c(=O)n3CCC#N)c(Cl)cc1F (single isomer, unassigned) [Example 1043, 3-(6-(2-chloro-4-fluoro-5-methoxyphenyl)-3-(1,3-dimethyl-1H-pyrazolo[3,4-c]pyridin-4-yl)-2,4-dioxo-3,4-dihydrothieno[3,2-d]pyrimidin-1(2H)-yl)propanenitrile] | > 1000 nM | > 1000 nM | –
COc1cc(-c2cc3c(s2)c(=O)n(-c2cncc4c2c(C)nn4C)c(=O)n3CCC#N)c(Cl)cc1F (single isomer, unassigned) [Example 1044, 3-(6-(2-chloro-4-fluoro-5-methoxyphenyl)-3-(1,3-dimethyl-1H-pyrazolo[3,4-c]pyridin-4-yl)-2,4-dioxo-3,4-dihydrothieno[3,2-d]pyrimidin-1(2H)-yl)propanenitrile] | 3.55 nM | 3.21 nM | –
COc1ccc(Cl)c(-c2cc3[nH]c(=O)n(-c4cncc5scc(C)c45)c(=O)c3s2)c1 (single isomer, unassigned) [Example 1052, 6-(2-chloro-5-methoxyphenyl)-3-(3-methylthieno[2,3-c]pyridin-4-yl)thieno[3,2-d]pyrimidine-2,4(1H,3H)-dione] | 3.67 nM | 2.66 nM | –
